Reference: patent publication US20090082337A1, “Compositions Comprising Quinolone and Methods for Treating or Controlling Infections” (priority 2007, published 2009)
≈ marks a conversion by molar mass, not a printed value.

Experiments:
Assay in all cases: In vitro anti-bacterial activity (MIC90), ophthalmologic clinical bacteria isolates
Type in all cases: cell-based
Moraxella species = conditions: Gram-negative
Pseudomonas aeruginosa = conditions: Gram-negative
Haemophilus influenzae = conditions: Gram-negative
Staphylococcus aureus = conditions: Gram-positive
[1] = system: Coagulase-negative Staphylococcus; conditions: Gram-positive
Streptococcus pneumoniae = conditions: Gram-positive
Corynebacterium species = conditions: Gram-positive
From the text: As disclosed above, most of these bacteria strains are also relevant to infections of the ear and upper respiratory tract.

Propionibacterium acnes = conditions: Cutibacterium acnes, Gram-positive
[2] = system: Ofloxacin-resistant Staphylococcus aureus; conditions: antibiotic-resistant organisms
[3] = system: Gentamycin-resistant Staphylococcus aureus; conditions: antibiotic-resistant organisms
[4] = system: Gentamycin-resistant Pseudomonas aeruginosa; conditions: antibiotic-resistant organisms
[5] = system: Penicillin-resistant Streptococcus pneumoniae; conditions: antibiotic-resistant organisms

CCn1cc(C(=O)O)c(=O)c2cc(F)c(N3CCNCC3)cc21 [Norfloxacin]
MIC90 (Moraxella species): 0.25 µg/mL (≈ 0.783 µM)
MIC90 (Pseudomonas aeruginosa): 4 µg/mL (≈ 12.5 µM)
MIC90 (Haemophilus influenzae): ≤ 0.06 µg/mL
MIC90 (Staphylococcus aureus): > 128 µg/mL
MIC90 [1]: 128 µg/mL (≈ 401 µM)
MIC90 (Streptococcus pneumoniae): 8 µg/mL (≈ 25.1 µM)
MIC90 (Corynebacterium species): 16 µg/mL (≈ 50.1 µM)
MIC90 (Propionibacterium acnes): 4 µg/mL (≈ 12.5 µM)
MIC90 [2]: > 128 µg/mL
MIC90 [3]: 128 µg/mL (≈ 401 µM)
MIC90 [4]: 128 µg/mL (≈ 401 µM)
MIC90 [5]: 8 µg/mL (≈ 25.1 µM)
